According to patent publication USH1209H, “No-carrier-added (18F)-N-methylspiroperidol” (The United States of America as represented by the United …, priority 1985, dated 1993):
Like-named read-outs stand apart in the source and are kept apart here.

What was measured:
[1] = Metabolic stability and uptake in rat brain (striatum, cerebellum); type: in vivo, rat (male BNL R strain); conditions: for remaining at 1 h / remaining at 4 h: iv, n = 2; for remaining at 1 h: 1 h after injection; for remaining at 4 h: 4 h after injection
dopamine receptors = test: PETT baboon studies: striatum and cerebellum radioactivity after i.v. [^18 F]-N-methylspiroperidol, with (-)- or (+)-butaclamol pretreatment
From the text: (§1) A young adult (12 kg) female baboon (Papio anubis) was anesthesized initially with ketamine and subsequently maintained under halothane/nitrous oxide anesthesia for two PETT studies. […] Pett scans were made continually for 4 hrs from the time of radioisotope injection.

[2] = Tissue distribution of radioactivity in mice; type: in vivo, mouse; conditions: for tissue uptake at 5 min / tissue uptake at 1 h / tissue uptake at 2 h: read-out: Tissue distribution, % Dose/g
From the text: As noted in Example 3 for the rat, the mouse brain uptake of radioactivity was higher for radiolabeled N-methylspiroperidol (1.1% of the administered dose).

[3] = Baboon plasma analyses (total plasma radioactivity clearance and unchanged radioligand); conditions: for remaining at 40 s / remaining at 4 min / remaining at 10 min / remaining at 0.5 h / remaining at 1 h / remaining at 2 h / remaining at 3 h / remaining at 4 h: plasma; for remaining at 40 s: 0.67 min after injection; for remaining at 4 min: 4.0 min after injection; for remaining at 0.5 h: 30 min after injection; for remaining at 1 h: 60 min after injection; for remaining at 2 h: 120 min after injection; for remaining at 3 h: 180 min after injection; for remaining at 4 h: 240 min after injection
From the text: as §1
Blood was sampled from the femoral artery at initial intervals of 5 secs. Aliquots of plasma were counted to determine the total plasma radioactivity of clearance curves.

[4] = baboon, iv, % [^18 F]-N-Methylspiroperidol in Plasma, baboon plasma
[5] = baboon, iv, % of ^18 F in CH3 CN as [^18 F]-N-Methylspiroperidol, baboon plasma

Structure (SMILES): CN1CN(c2ccccc2)C2(CCN(CCCC(=O)c3ccc([18F])cc3)CC2)C1=O [[^18 F]-N-methylspiroperidol]
- remaining at 1 h ([1]; rat cerebellum, ind. values 90, 90): 90%
- remaining at 4 h ([1]; rat cerebellum, ind. values 85, 85): 85%
- remaining at 1 h ([1]; rat striatum, ind. values 95, 96): 96%
- remaining at 4 h ([1]; rat striatum, ind. values 98, 97): 98%
- metabolism in the rat brain ([1]; rat brain): very little metabolism
- specifically bound component of radioactivity in the striatum (striatum minus cerebellum) (dopamine receptors; 4 hrs after injection): still increasing at 4 hrs after injection
- striatum and cerebellum radioactivity curves, access to specific binding sites (dopamine receptors; after 0.5 mg/kg (+)-butaclamol pretreatment): no longer had access to specific binding sites
- radioactivity in the cerebellum (dopamine receptors; after the first few minutes, control study): declined rapidly in the cerebellum
- absolute striatal uptake, excess over [^18 F]spiroperidol (dopamine receptors; control study, (-)-butaclamol 0.5 mg/kg pretreatment): more than two-fold
- Influx into striatum and cerebellum (dopamine receptors; first few minutes, control study): equal for the first few minutes
- radioactivity in the striatum (dopamine receptors; up to 4 hrs, control study): increasing for up to 4 hrs in the striatum
- tissue distribution of radioactivity compared with that reported for N-[^11 C] methylspiroperidol ([2]; mouse): very little difference
- tissue uptake at 5 min ([2]; mouse blood, 5 min, mean of three mice, range 1.0-1.5): 1.2 %ID/g
- tissue uptake at 1 h ([2]; mouse blood, 60 min, mean of three mice, range 0.40-0.50): 0.45 %ID/g
- tissue uptake at 2 h ([2]; mouse blood, 120 min, mean of four mice, range 0.15-0.27): 0.19 %ID/g
- mouse brain uptake of radioactivity ([2]; mouse brain): 1.1 % of the administered dose
- Tissue distribution, % Dose/Organ ([2]; mouse brain, 5 min, mean of three mice, range 1.0-1.1): 1.1 % Dose/Organ
- tissue uptake at 5 min ([2]; mouse brain, 5 min, mean of three mice, range 2.2-2.4): 2.3 %ID/g
- Tissue distribution, % Dose/Organ ([2]; mouse brain, 60 min, mean of three mice, range 0.60-0.74): 0.68 % Dose/Organ
- tissue uptake at 1 h ([2]; mouse brain, 60 min, mean of three mice, range 1.3-1.8): 1.5 %ID/g
- Tissue distribution, % Dose/Organ ([2]; mouse brain, 120 min, mean of four mice, range 0.43-0.68): 0.57 % Dose/Organ
- tissue uptake at 2 h ([2]; mouse brain, 120 min, mean of four mice, range 1.1-1.6): 1.3 %ID/g
- Tissue distribution, % Dose/Organ ([2]; mouse heart, 5 min, mean of three mice, range 0.35-0.42): 0.37 % Dose/Organ
- tissue uptake at 5 min ([2]; mouse heart, 5 min, mean of three mice, range 3.2-3.4): 3.3 %ID/g
- Tissue distribution, % Dose/Organ ([2]; mouse heart, 60 min, mean of three mice, range 0.064-0.076): 0.072 % Dose/Organ
- tissue uptake at 1 h ([2]; mouse heart, 60 min, mean of three mice, range 0.59-0.65): 0.61 %ID/g
- Tissue distribution, % Dose/Organ ([2]; mouse heart, 120 min, mean of four mice, range 0.020-0.030): 0.026 % Dose/Organ
- tissue uptake at 2 h ([2]; mouse heart, 120 min, mean of four mice, range 0.18-0.35): 0.24 %ID/g
- Tissue distribution, % Dose/Organ ([2]; mouse kidneys, 5 min, mean of three mice, range 4.2-4.8): 4.5 % Dose/Organ
- tissue uptake at 5 min ([2]; mouse kidneys, 5 min, mean of three mice, range 11-13): 12 %ID/g
- Tissue distribution, % Dose/Organ ([2]; mouse kidneys, 60 min, mean of three mice, range 1.1-1.3): 1.2 % Dose/Organ
- tissue uptake at 1 h ([2]; mouse kidneys, 60 min, mean of three mice, range 3.0-4.0): 3.4 %ID/g
- Tissue distribution, % Dose/Organ ([2]; mouse kidneys, 120 min, mean of four mice, range 0.40-0.57): 0.46 % Dose/Organ
- tissue uptake at 2 h ([2]; mouse kidneys, 120 min, mean of four mice, range 1.2-1.8): 1.5 %ID/g
- tissue uptake at 5 min ([2]; mouse liver, 5 min, mean of three mice, range 5.2-5.7): 5.4 %ID/g
- Tissue distribution, % Dose/Organ ([2]; mouse liver, 5 min, mean of three mice, range 8.2-8.3): 8.2 % Dose/Organ
- tissue uptake at 1 h ([2]; mouse liver, 60 min, mean of three mice, range 2.4-3.4): 2.9 %ID/g
- Tissue distribution, % Dose/Organ ([2]; mouse liver, 60 min, mean of three mice, range 3.8-4.1): 4.0 % Dose/Organ
- tissue uptake at 2 h ([2]; mouse liver, 120 min, mean of four mice, range 1.2-1.9): 1.4 %ID/g
- Tissue distribution, % Dose/Organ ([2]; mouse liver, 120 min, mean of four mice, range 1.5-1.8): 1.6 % Dose/Organ
- Tissue distribution, % Dose/Organ ([2]; mouse lungs, 5 min, mean of three mice, range 2.0-2.1): 2.0 % Dose/Organ
- tissue uptake at 5 min ([2]; mouse lungs, 5 min, mean of three mice, range 11-14): 13 %ID/g
- Tissue distribution, % Dose/Organ ([2]; mouse lungs, 60 min, mean of three mice, range 0.24-0.29): 0.27 % Dose/Organ
- tissue uptake at 1 h ([2]; mouse lungs, 60 min, mean of three mice, range 1.6-2.3): 1.9 %ID/g
- Tissue distribution, % Dose/Organ ([2]; mouse lungs, 120 min, mean of four mice, range 0.09-0.16): 0.12 % Dose/Organ
- tissue uptake at 2 h ([2]; mouse lungs, 120 min, mean of four mice, range 0.70-1.50): 0.95 %ID/g
- Tissue distribution, % Dose/Organ ([2]; mouse ovaries, 60 min, mean of three mice, range 0.028-0.057): 0.040 % Dose/Organ
- Tissue distribution, % Dose/Organ ([2]; mouse ovaries, 120 min, mean of four mice, range 0.009-0.022): 0.014 % Dose/Organ
- Tissue distribution, % Dose/Organ ([2]; mouse small intestine, 5 min, mean of three mice, range 3.2-6.8): 5.3 % Dose/Organ
- tissue uptake at 5 min ([2]; mouse small intestine, 5 min, mean of three mice, range 4.0-4.8): 4.3 %ID/g
- Tissue distribution, % Dose/Organ ([2]; mouse small intestine, 60 min, mean of three mice, range 1.6-3.6): 2.9 % Dose/Organ
- tissue uptake at 1 h ([2]; mouse small intestine, 60 min, mean of three mice, range 1.7-3.4): 2.5 %ID/g
- Tissue distribution, % Dose/Organ ([2]; mouse small intestine, 120 min, mean of four mice, range 0.7-1.9): 1.3 % Dose/Organ
- tissue uptake at 2 h ([2]; mouse small intestine, 120 min, mean of four mice, range 0.8-1.7): 1.3 %ID/g
- Tissue distribution, % Dose/Organ ([2]; mouse spleen, 5 min, mean of three mice, range 0.82-1.05): 0.95 % Dose/Organ
- tissue uptake at 5 min ([2]; mouse spleen, 5 min, mean of three mice, range 4.7-6.5): 5.8 %ID/g
- Tissue distribution, % Dose/Organ ([2]; mouse spleen, 60 min, mean of three mice, range 0.25-0.28): 0.26 % Dose/Organ
- tissue uptake at 1 h ([2]; mouse spleen, 60 min, mean of three mice, range 1.1-1.9): 1.6 %ID/g
- Tissue distribution, % Dose/Organ ([2]; mouse spleen, 120 min, mean of four mice, range 0.043-0.073): 0.062 % Dose/Organ
- tissue uptake at 2 h ([2]; mouse spleen, 120 min, mean of four mice, range 0.40-0.73): 0.57 %ID/g
- time course of distribution compared with [^18 F]spiroperidol ([3]; Example 2): more rapid
- appearance of peripheral radioactive metabolites compared with [^18 F]spiroperidol ([3]; baboon plasma): more rapid
- time for blood radioactivity to drop below the brain concentration ([3]; baboon, after injection): ≤ 90 s
- remaining at 40 s [3, 4]: 81%
- remaining at 4 min [3, 4]: 66%
- remaining at 10 min ([3]; baboon, iv, % [^18 F]-N-Methylspiroperidol in Plasma, baboon plasma, 10 min after injection): 43%
- remaining at 0.5 h [3, 4]: 18%
- remaining at 1 h [3, 4]: 18%
- remaining at 2 h [3, 4]: 11%
- remaining at 3 h [3, 4]: 11%
- remaining at 4 h [3, 4]: 9.4%
- remaining at 40 s [3, 5]: 88%
- remaining at 4 min [3, 5]: 78%
- remaining at 10 min ([3]; baboon, iv, % of ^18 F in CH3 CN as [^18 F]-N-Methylspiroperidol, baboon plasma, 10 min after injection): 60%
- remaining at 0.5 h [3, 5]: 32%
- remaining at 1 h [3, 5]: 36%
- remaining at 2 h [3, 5]: 26%
- remaining at 3 h [3, 5]: 29%
- remaining at 4 h [3, 5]: 26%
- remaining at 10 min ([3]; baboon, plasma radioactivity due to unaltered radioligand, baboon plasma, 10 mins after injection): 43%
- blood clearance ([3]; baboon, total plasma radioactivity): very rapid
